The nature of data set [1]: Absorption characteristic of NIR dye in dichloromethane. The data set is classed as physicochemical. The source says:
The obtained NIR dyes were each dissolved in dichloromethane, and an ultraviolet-visible spectrophotometer (manufactured by Hitachi High Technologies Co., Ltd., U-4100 type) was used to measure each spectral transmittance curve, from which a maximum absorption wavelength λmax, a wavelength λ80 at which the transmittance becomes 80% on a shorter wavelength side than the maximum absorption wavelength with the transmittance at the maximum absorption wavelength set to 10%, a difference between the maximum absorption wavelength λmax and the wavelength λ80 (λmax−λ80), a maximum absorption constant εA in light of a wavelength range of 430 to 550 nm, a maximum absorption constant εB in light of a wavelength range of 670 to 730 nm, and a ratio of these (εB/εA) were calculated. Note that the U-4100 type was used for the measurement of spectral transmittance curves in each of the following examples.

Data set [2] is described as follows: Solubility of NIR dye to resin solution. The data set is classed as physicochemical. The following applies: stirred two hours; for Solubility evaluation, Polyimide resin: 12.5 mass % C3450 in cyclohexanone:NMP=1:1, 50° C.; for Solubility evaluation, Polyester resin: 12.5 mass % OKP850 in cyclohexanone:NMP=1:1, 50° C.; for Solubility evaluation, Polyethersulfone resin: 12.5 mass % PES4800 in cyclohexanone:NMP=1:1, 50° C. As to the method: Results are illustrated in Table 8 together with the kinds of the used dyes. Note that the temperature of the resin solution in the solubility test was set to 50° C., the NIR dye was put into the resin solution, the resultant resin solution was stirred for two hours, and the presence/absence of occurrence of the dissolution was observed visually. Evaluation criteria of the solubility are as follows.
A: Solubility of 9 mass % or more
B: Solubility of 7 mass % or more and less than 9 mass %
C: Solubility of 5 mass % or more and less than 7 mass %
D: Solubility of 3 mass % or more and less than 5 mass %
E: Solubility of 1 mass % or more and less than 3 mass %
F: Solubility of less than 1 mass %

The values that follow come from patent US11693163B2, “Optical filter and imaging device” (AGC Inc., priority 2015, dated 2023).

Turning to `CCCCCOC(=O)Nc1cc2c(cc1C1=C([O-])C(=c3cc4c(cc3NC(=O)OCCCCC)=[N+](C(C)(C)CC)C(C)C4(C)C)C1=O)C(C)(C)C(C)N2C(C)(C)CC` (stereo not drawn) [A1-11], in data set [1], the “εA (maximum absorption constant, 430 to 550 nm)” value was 0.016; the “εB (maximum absorption constant, 670 to 730 nm)” value is listed as 1; the εB/εA amounted to 61.3; the “λ80 (wavelength of 80% transmittance, shorter side of λmax, transmittance at λmax set to 10%)” value was determined as 658 nm. Besides, in data set [1], the “λmax (maximum absorption wavelength)” value worked out at 705 nm and the λmax-λ80 came to 47 nm. For the same compound, in data set [2], the “Solubility evaluation, Polyimide resin” value was “A (9 mass % or more)”; the “Solubility evaluation, Polyester resin” value was “A (9 mass % or more)”; the “Solubility evaluation, Polyethersulfone resin” value is given as “A (9 mass % or more)”.

Turning to `CCCCC(CC)COC(=O)Nc1cc2c(cc1C1=C([O-])C(=c3cc4c(cc3NC(=O)OCC(CC)CCCC)=[N+](C)C(C)C4(C)C)C1=O)C(C)(C)C(C)N2C` (stereo not drawn) [A1-4], in data set [1], the “εA (maximum absorption constant, 430 to 550 nm)” value is recorded as 0.019; the “εB (maximum absorption constant, 670 to 730 nm)” value was 1; the εB/εA is recorded as 53.5; the “λ80 (wavelength of 80% transmittance, shorter side of λmax, transmittance at λmax set to 10%)” value is given as 632 nm. Moreover, in data set [1], the “λmax (maximum absorption wavelength)” value is 690 nm and the λmax-λ80 is listed as 58 nm. For the same compound, in data set [2], the “Solubility evaluation, Polyimide resin” value was “A (9 mass % or more)”; the “Solubility evaluation, Polyester resin” value is reported as “A (9 mass % or more)”; the “Solubility evaluation, Polyethersulfone resin” value is recorded as “A (9 mass % or more)”.
